According to patent US8349880B2, “Bicyclic compounds for the reduction of beta-amyloid production” (Bristol-Myers Squibb Company, priority 2009, dated 2013):

These compounds were tested on Aβ1-42 production (assay: Cellular assay for inhibition of Aβ1-42 production (H4 APP751 SWE clone 8.20)). Settings: 19 h, H4 APP751 SWE clone 8.20 cells, 19 h incubation; read-out: Activity Rating (Aβ42 cellular IC50, given as a number).
Type: cell-based
Experimental: Cellular assays for inhibition of Aβ1-40 and Aβ1-42 production
H4 cells stably transfected with APP751 containing the Swedish mutation (H4 APP751 SWE clone 8.20, developed at BMS) were maintained in log phase through twice weekly passage at a 1:20 split. For IC50 determinations, 30 μl cells (1.5×10^4 cells/well) in DMEM media containing 0.0125% BSA (Sigma A8412) were plated directly into 384-well compound plates (Costar 3709) containing 0.1 μl serially diluted compound in DMSO. Following incubation for 19 h in 5% CO2 at 37° C., plates were briefly centrifuged (1000 rpm, 5 min). A 10 μl aliquot from each well was transferred to a second assay plate (Costar 3709) for Aβ40 measurements. Antibody cocktails were freshly prepared by dilution into 40 mM Tris-HCl (pH 7.4) with 0.2% BSA and added to assay plates. For Aβ42 measurements, antibodies specific for the Aβ42 neoepitope (565, developed at BMS; conjugated to the Wallac reagent (Perkin Elmer)) and the N-terminal sequence of Aβ peptide (26D6, developed at SIBIA; conjugated to APC (Perkin Elmer)) were mixed and 20 μl of the mixture was added to each well of the incubated cell plate yielding a final concentration of 0.8 ng/well 565 and 75 ng/well 26D6. For the Aβ40 measurements, antibodies specific for the Aβ40 neoepitope (TSD, developed at BMS; conjugated to the Wallac reagent (Perkin Elmer)) and 26D6 as described above were mixed and 20 μl of the mixture was added to the 10 μl aliquots which had been removed previously from the cell plate yielding a final concentration of 1.6 ng/well TSD and 17.5 ng/well 26D6. Assay plates containing antibodies were sealed with aluminum foil and incubated overnight at 4° C. Signal was determined using a Viewlux counter (Perkin Elmer) and IC50 values determined using curve fitting in CurveMaster (Excel Fit based).
`COc1cc(Nc2nc3n(n2)C[C@H](O)[C@H](O)CC3c2ccc(F)cc2)ccc1-n1cnc(Cl)c1` (relative stereo) [Example 63, rel-(6S,7R,9R)-2-(4-(4-chloro-1H-imidazol-1-yl)-3-methoxyphenylamino)-9-(4-fluorophenyl)-6,7,8,9-tetrahydro-5H-[1,2,4]triazolo azepine-6,7-diol 2,2,2-trifluoroacetate] showed an IC50 of 140 nM.
Compound `Cc1ncnn1-c1ccc(Nc2nc3n(n2)CC[C@H](O)C[C@@H]3c2ccc(F)cc2)cc1F` (relative stereo) [Example 156, rel-(7R,9R)-2-(3-fluoro-4-(5-methyl-1H-1,2,4-triazol-1-yl)phenylamino)-9-(4-fluorophenyl)-6,7,8,9-tetrahydro-5H-[1,2,4]triazolo[1,5-a]azepin-7-ol 2,2,2-trifluoroacetate] has an IC50 of 122 nM.
In the case of `COc1cc(Nc2nc3n(n2)CC=CC[C@H]3c2ccc(F)cc2)ccc1-n1cnc(Cl)c1` (single isomer, unassigned) [Example 2], the IC50 is reported as 9 nM.
In the case of `Cc1ncnn1-c1ccc(Nc2nc3n(n2)CCC[C@H]3c2ccc(F)cc2)cc1F` (single isomer, unassigned) [Example 14], the IC50 is reported as 53 nM.

Same assay, conditions: 19 h, H4 APP751 SWE clone 8.20 cells, 19 h incubation; read-out: Activity Rating (based on Aβ42 cellular IC50 values)
In the case of `COc1cc(Nc2nc3n(n2)C[C@H](O)CC[C@H]3c2ccc(F)cc2)ccc1-n1cnc(Cl)c1` (relative stereo) [Example 62, rel-(6R,9S)-2-(4-(4-chloro-1H-imidazol-1-yl)-3-methoxyphenylamino)-9-(4-fluorophenyl)-6,7,8,9-tetrahydro-5H-[1,2,4]triazolo[1,5-a]azepin-6-ol 2,2,2-trifluoroacetate], the IC50 is reported as under 10 nM.
`COc1cc(Nc2nc3n(n2)C[C@H](O)[C@H](O)C[C@H]3c2ccc(F)cc2)ccc1-n1cnc(Cl)c1` (relative stereo) [Example 64, rel-(6S,7R,9S)-2-(4-(4-chloro-1H-imidazol-1-yl)-3-methoxyphenylamino)-9-(4-fluorophenyl)-6,7,8,9-tetrahydro-5H-[1,2,4]triazolo[1,5-a]azepine-6,7-diol 2,2,2-trifluoroacetate] gave an IC50 of 10 to 100 nM.
`COc1cc(Nc2nc3n(n2)C[C@H](O)CC[C@@H]3c2ccc(F)cc2)ccc1-n1cnc(Cl)c1` (relative stereo) [Example 65, rel-(6R,9R)-2-(4-(4-chloro-1H-imidazol-1-yl)-3-methoxyphenylamino)-9-(4-fluorophenyl)-6,7,8,9-tetrahydro-5H-[1,2,4]triazolo[1,5-a]azepin-6-ol 2,2,2-trifluoroacetate] showed an IC50 of under 10 nM.
For `COc1cc(Nc2nc3n(n2)CC[C@@H](O)C[C@@H]3c2ccc(F)cc2)ccc1-n1cnc(Cl)c1` (relative stereo) [Example 66, rel-(7S,9R)-2-(4-(4-chloro-1H-imidazol-1-yl)-3-methoxyphenylamino)-9-(4-fluorophenyl)-6,7,8,9-tetrahydro-5H-[1,2,4]triazolo[1,5-a]azepin-7-ol 2,2,2-trifluoroacetate], the IC50 was under 10 nM.
Compound `COc1cc(Nc2nc3n(n2)C[C@H](F)[C@H](F)C[C@H]3c2ccc(F)cc2)ccc1-n1cnc(Cl)c1` (relative stereo) [Example 91, rel-(6S,7R,9S)—N-(4-(4-chloro-1H-imidazol-1-yl)-3-methoxyphenyl)-6,7-difluoro-9-(4-fluorophenyl)-6,7,8,9-tetrahydro-5H-[1,2,4]triazolo[1,5-a]azepin-2-amine 2,2,2-trifluoroacetate] has an IC50 of under 10 nM.
`COc1cc(Nc2nc3n(n2)CC[C@](C)(O)C[C@@H]3c2ccc(F)cc2)ccc1-n1cnc(Cl)c1` (relative stereo) [Example 147, rel-(7R,9R)-2-(4-(4-chloro-1H-imidazol-1-yl)-3-methoxyphenylamino)-9-(4-fluorophenyl)-7-methyl-6,7,8,9-tetrahydro-5H-[1,2,4]triazolo[1,5-a]azepin-7-ol 2,2,2-trifluoroacetate] showed an IC50 of under 10 nM.
For `Cc1ncnn1-c1ccc(Nc2nc3n(n2)CC[C@](C)(O)C[C@@H]3c2ccc(F)cc2)cc1F` (relative stereo) [Example 150, rel-(7R,9R)-2-(3-fluoro-4-(5-methyl-1H-1,2,4-triazol-1-yl)phenylamino)-9-(4-fluorophenyl)-7-methyl-6,7,8,9-tetrahydro-5H-[1,2,4]triazolo[1,5-a]azepin-7-ol 2,2,2-trifluoroacetate], the IC50 was 10 to 100 nM.
Work on `Cc1ncnn1-c1ccc(Nc2nc3n(n2)CC[C@@](C)(O)C[C@@H]3c2ccc(F)cc2)cc1F` (relative stereo) [Example 151, rel-(7S,9R)-2-(3-fluoro-4-(5-methyl-1H-1,2,4-triazol-1-yl)phenylamino)-9-(4-fluorophenyl)-7-methyl-6,7,8,9-tetrahydro-5H-[1,2,4]triazolo[1,5-a]azepin-7-ol 2,2,2-trifluoroacetate] yielded an IC50 of 10 to 100 nM.
Work on `COc1cc(Nc2nc3n(n2)CC[C@](C)(O)C[C@@H]3c2ccc(OC(F)(F)F)cc2)ccc1-n1cnc(Cl)c1` (relative stereo) [Example 152, rel-(7R,9R)-2-(4-(4-chloro-1H-imidazol-1-yl)-3-methoxyphenylamino)-7-methyl-9-(4-(trifluoromethoxy)phenyl)-6,7,8,9-tetrahydro-5H-[1,2,4]triazolo[1,5-a]azepin-7-ol 2,2,2-trifluoroacetate] yielded an IC50 of under 10 nM.
In the case of `COc1cc(Nc2nc3n(n2)CC[C@@](C)(O)C[C@@H]3c2ccc(OC(F)(F)F)cc2)ccc1-n1cnc(Cl)c1` (relative stereo) [Example 153, rel-(7S,9R)-2-(4-(4-chloro-1H-imidazol-1-yl)-3-methoxyphenylamino)-7-methyl-9-(4-(trifluoromethoxy)phenyl)-6,7,8,9-tetrahydro-5H-[1,2,4]triazolo[1,5-a]azepin-7-ol 2,2,2-trifluoroacetate], the IC50 is reported as under 10 nM.
Work on `Cc1ncn(-c2ccc(Nc3nc4n(n3)CC[C@](C)(O)C[C@@H]4c3ccc(F)cc3)cc2F)n1` (relative stereo) [Example 154, rel-(7R,9R)-2-(3-fluoro-4-(3-methyl-1H-1,2,4-triazol-1-yl)phenylamino)-9-(4-fluorophenyl)-7-methyl-6,7,8,9-tetrahydro-5H-[1,2,4]triazolo[1,5-a]azepin-7-ol 2,2,2-trifluoroacetate] yielded an IC50 of 10 to 100 nM.
Compound `Cc1ncn(-c2ccc(Nc3nc4n(n3)CC[C@@](C)(O)C[C@@H]4c3ccc(F)cc3)cc2F)n1` (relative stereo) [Example 155, rel-(7S,9R)-2-(3-fluoro-4-(3-methyl-1H-1,2,4-triazol-1-yl)phenylamino)-9-(4-fluorophenyl)-7-methyl-6,7,8,9-tetrahydro-5H-[1,2,4]triazolo[1,5-a]azepin-7-ol 2,2,2-trifluoroacetate] has an IC50 of 10 to 100 nM.
With `Cc1ncnn1-c1ccc(Nc2nc3n(n2)CC[C@@H](O)C[C@@H]3c2ccc(F)cc2)cc1F` (relative stereo) [Example 157, rel-(7S,9R)-2-(3-fluoro-4-(5-methyl-1H-1,2,4-triazol-1-yl)phenylamino)-9-(4-fluorophenyl)-6,7,8,9-tetrahydro-5H-[1,2,4]triazolo[1,5-a]azepin-7-ol 2,2,2-trifluoroacetate] the IC50 was 10 to 100 nM.
Compound `COc1cc(Nc2nc3n(n2)CC=CC[C@@H]3c2ccc(F)cc2)ccc1-n1cnc(Cl)c1` (single isomer, unassigned) [Example 3] has an IC50 of under 10 nM.
For `COc1cc(Nc2nc3n(n2)CC=CC[C@H]3c2ccc(F)cc2)ccc1-n1cnc(C)n1` (single isomer, unassigned) [Example 5], the IC50 was 10 to 100 nM.
Work on `COc1cc(Nc2nc3n(n2)CC=CC[C@@H]3c2ccc(F)cc2)ccc1-n1cnc(C)n1` (single isomer, unassigned) [Example 6] yielded an IC50 of 10 to 100 nM.
Work on `Cc1ncnn1-c1ccc(Nc2nc3n(n2)CCC[C@@H]3c2ccc(F)cc2)cc1F` (single isomer, unassigned) [Example 15] yielded an IC50 of 100 to 1000 nM.
`COc1cc(Nc2nc3n(n2)CCCC[C@H]3c2ccc(F)cc2)ccc1-n1cnc(Cl)c1` (single isomer, unassigned) [Example 17] was tested, and the IC50 was under 10 nM.
Compound `COc1cc(Nc2nc3n(n2)CCCC[C@@H]3c2ccc(F)cc2)ccc1-n1cnc(Cl)c1` (single isomer, unassigned) [Example 18] has an IC50 of 10 to 100 nM.
Work on `COc1cc(Nc2nc3n(n2)CCCC[C@H]3c2ccc(Cl)cc2Cl)ccc1-n1cnc(Cl)c1` (single isomer, unassigned) [Example 20] yielded an IC50 of under 10 nM.
With `COc1cc(Nc2nc3n(n2)CCCC[C@@H]3c2ccc(Cl)cc2Cl)ccc1-n1cnc(Cl)c1` (single isomer, unassigned) [Example 21] the IC50 was under 10 nM.
`COc1cc(Nc2nc3n(n2)CCCC[C@@H]3c2ccc(F)c(F)c2)ccc1-n1cnc(Cl)c1` (single isomer, unassigned) [Example 24] was tested, and the IC50 was under 10 nM.
Work on `Cc1ncn(-c2ccc(Nc3nc4n(n3)CCCC[C@H]4c3ccc(F)cc3)cc2F)n1` (single isomer, unassigned) [Example 26] yielded an IC50 of 10 to 100 nM.
`Cc1ncn(-c2ccc(Nc3nc4n(n3)CCCC[C@@H]4c3ccc(F)cc3)cc2F)n1` (single isomer, unassigned) [Example 27] was tested, and the IC50 was 10 to 100 nM.
